Values quoted from earlier work as cited in patent publication US20120015026A1, “PHARMACEUTICAL COMPOSITION CONTAINING A DRUG AND SIRNA” (priority 2009, published 2012).

Assays:
[1] = organic solvents such as ethanol, ethylacetate, dichloromethane

Question: What does the source list for `C/C(=C\c1csc(C)n1)[C@@H]1C[C@@H]2O[C@]2(C)CCC[C@H](C)[C@H](O)[C@@H](C)C(=O)C(C)(C)[C@@H](O)CC(=O)O1` [EPO906, epothilone B]?
Answer: solubility in water: < 0.1 µg/mL; solubility in organic solvents [1]: highly soluble
